System: NOMO1
Test: cell viability relative to DMSO control; higher = less cytotoxic
Settings: 48 h
Method in brief: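 Three leukemia lines were tested: NOMO1 and SEM at 500 cells/well and P12-Ichikawa at 1000 cells/well. Each was adapted for at least four passages in each medium and seeded in 5 μl in 1536-well plates, and library compounds in DMSO were pin-dosed from 47 μM to 0.79 nM in 11 threefold steps. After 48 h at 37°C, CellTiter-Glo One luminescence was read. Viability is a percentage relative to DMSO wells on each plate, with cell-free wells as background.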

[1] = HPLM + 10% dialyzed FBS, 0.000781 µM
[2] = HPLM + 10% dialyzed FBS, 0.00234 µM
[3] = HPLM + 10% dialyzed FBS, 0.00702 µM
[4] = HPLM + 10% dialyzed FBS, 0.0211 µM
[5] = HPLM + 10% dialyzed FBS, 0.0632 µM
[6] = HPLM + 10% dialyzed FBS, 0.19 µM
[7] = HPLM + 10% dialyzed FBS, 0.569 µM
[8] = HPLM + 10% dialyzed FBS, 1.71 µM
[9] = HPLM + 10% dialyzed FBS, 5.12 µM
[10] = HPLM + 10% dialyzed FBS, 15.4 µM
[11] = HPLM + 10% dialyzed FBS, 46.1 µM
[12] = RPMI 5 mM glucose + 10% FBS, 0.000781 µM
[13] = RPMI 5 mM glucose + 10% FBS, 0.00234 µM
[14] = RPMI 5 mM glucose + 10% FBS, 0.00702 µM
[15] = RPMI 5 mM glucose + 10% FBS, 0.0211 µM
[16] = RPMI 5 mM glucose + 10% FBS, 0.0632 µM
[17] = RPMI 5 mM glucose + 10% FBS, 0.19 µM
[18] = RPMI 5 mM glucose + 10% FBS, 0.569 µM
[19] = RPMI 5 mM glucose + 10% FBS, 1.71 µM
[20] = RPMI 5 mM glucose + 10% FBS, 5.12 µM
[21] = RPMI 5 mM glucose + 10% FBS, 15.4 µM
[22] = RPMI 5 mM glucose + 10% FBS, 46.1 µM
[23] = RPMI 5 mM glucose + 10% dialyzed FBS, 0.000781 µM
[24] = RPMI 5 mM glucose + 10% dialyzed FBS, 0.00234 µM
[25] = RPMI 5 mM glucose + 10% dialyzed FBS, 0.00702 µM
[26] = RPMI 5 mM glucose + 10% dialyzed FBS, 0.0211 µM
[27] = RPMI 5 mM glucose + 10% dialyzed FBS, 0.0632 µM
[28] = RPMI 5 mM glucose + 10% dialyzed FBS, 0.19 µM
[29] = RPMI 5 mM glucose + 10% dialyzed FBS, 0.569 µM
[30] = RPMI 5 mM glucose + 10% dialyzed FBS, 1.71 µM
[31] = RPMI 5 mM glucose + 10% dialyzed FBS, 5.12 µM
[32] = RPMI 5 mM glucose + 10% dialyzed FBS, 15.4 µM
[33] = RPMI 5 mM glucose + 10% dialyzed FBS, 46.1 µM

Structure (SMILES) | cell viability [1] | cell viability [2] | cell viability [3] | cell viability [4] | cell viability [5] | cell viability [6] | cell viability [7] | cell viability [8] | cell viability [9] | cell viability [10] | cell viability [11] | cell viability [12] | cell viability [13] | cell viability [14] | cell viability [15] | cell viability [16] | cell viability [17] | cell viability [18] | cell viability [19] | cell viability [20] | cell viability [21] | cell viability [22] | cell viability [23] | cell viability [24] | cell viability [25] | cell viability [26] | cell viability [27] | cell viability [28] | cell viability [29] | cell viability [30] | cell viability [31] | cell viability [32] | cell viability [33]
CN(C)CCc1c[nH]c2ccc(C[S+](=O)([O-])N3CCCC3)cc12 | 95.2% | 118% | 104% | 109% | 118% | 113% | 102% | 125% | 107% | 96.2% | 60.2% | 96.7% | 107% | 97.1% | 104% | 123% | 97.1% | 99.3% | 98.5% | 96.4% | 97.6% | 72.2% | 99.5% | 95.8% | 113% | 103% | 106% | 109% | 115% | 102% | 106% | 92% | 58.8%
Cc1cnc(Nc2ccc(N3CCN(C)CC3)cc2)nc1Nc1cccc([S+](=O)([O-])NC(C)(C)C)c1 | 122% | 117% | 115% | 104% | 122% | 120% | 95.7% | 80.2% | 65.8% | 45.5% | 5.81% | 100% | 108% | 99.1% | 98.6% | 101% | 102% | 102% | 87.6% | 77.8% | 44.6% | 15.2% | 112% | 113% | 107% | 111% | 110% | 94.2% | 101% | 95.8% | 74.6% | 56.8% | 21.5%
Oc1ccc2ccccc2c1SSc1c(O)ccc2ccccc12 | 94.5% | 101% | 101% | 126% | 124% | 135% | 111% | 125% | 114% | 92.8% | 103% | 98.9% | 94.4% | 111% | 119% | 108% | 109% | 110% | 107% | 96.9% | 104% | 96.4% | 85.3% | 93.9% | 117% | 116% | 105% | 105% | 109% | 105% | 96.3% | 100% | 78.9%
Nc1ccc([S+](=O)([O-])Nc2ncccn2)cc1 | 115% | 121% | 130% | 126% | 136% | 127% | 129% | 138% | 142% | 129% | 120% |  |  |  |  |  |  |  |  |  |  |  |  |  |  |  |  |  |  |  |  |  | 
Cc1cnc(Nc2ccc(CN3CCOCC3)cc2)nc1Nc1cccc([S+](=O)([O-])NC(C)(C)C)c1 | 87.4% | 98.1% | 99.1% | 86.6% | 81.3% | 86.9% | 93.7% | 75.6% | 48.1% | 15.5% | 10.3% | 67.8% | 80% | 79.7% | 71.5% | 75.1% | 74.2% | 78.9% | 68% | 30.8% | 8.44% | 7.72% | 75.4% | 85.6% | 89.4% | 79.2% | 84.4% | 80.8% | 57.8% | 69.8% | 38.3% | 11.6% | 9.38%
COc1cc2ncnc(Nc3cccc(Cl)c3)c2cc1OC | 83% | 93.2% | 86.9% | 80.6% | 69.7% | 59% | 57% | 41.4% | 39.2% | 36% | 3.63% | 95.7% | 101% | 99.3% | 96.6% | 102% | 85.9% | 82.1% | 57.7% | 48.7% | 39.6% | 34.4% | 100% | 95% | 101% | 101% | 76.2% | 75.1% | 72.9% | 47.7% | 45.8% | 38.9% | 37.5%
CC(C)(C)OC(=O)Nc1ccc(-c2cc(C(=O)NCCCCCCC(=O)NO)no2)cc1 | 88.5% | 89% | 84.4% | 89.8% | 98.3% | 104% | 104% | 99.4% | 68.7% | 13.7% | 4.88% | 86.7% | 80.1% | 81.1% | 84.3% | 85.3% | 88.6% | 99.4% | 80.8% | 67.1% | 11.8% | 4.55% | 86.3% | 82.8% | 89.2% | 88.2% | 99.3% | 92.1% | 101% | 72.9% | 73.8% | 13.1% | 4.05%
NC[C@H]1O[C@H](O[C@H]2[C@H](O)[C@@H](O[C@H]3O[C@H](CO)[C@@H](O)[C@H](N)[C@H]3O)[C@H](N)C[C@@H]2N)[C@H](N)C[C@@H]1O | 103% | 99.1% | 122% | 92.5% | 110% | 106% | 112% | 102% | 102% | 91.9% | 106% | 109% | 103% | 101% | 110% | 104% | 103% | 105% | 94.6% | 104% | 101% | 107% | 95.3% | 101% | 95.2% | 96% | 96.6% | 99.7% | 94.3% | 89.7% | 81.7% | 97.2% | 93.4%
O=C(NCc1ccccc1)c1csc(Nc2ccncn2)n1 | 86.8% | 95.2% | 101% | 94% | 121% | 97.3% | 97.6% | 51.2% | 26.7% | 4.88% | 2.11% | 90.8% | 82.1% | 98.6% | 83% | 94.8% | 98.2% | 95.4% | 56.6% | 33.4% | 4.95% | 3.15% | 92% | 95% | 93.2% | 85.2% | 93.7% | 77.2% | 103% | 67.7% | 33.9% | 4.75% | 3.19%
Cn1cnc([N+](=O)[O-])c1Sc1ncnc2nc[nH]c12 | 79.8% | 79.6% | 107% | 99.1% | 109% | 93.9% | 114% | 89.9% | 6.49% | 6.93% | 7.54% | 79.6% | 87.5% | 91.3% | 96.6% | 85.1% | 95.6% | 82.8% | 73.1% | 57.4% | 6.27% | 5.14% | 88.9% | 96.7% | 93.3% | 90% | 98.6% | 92.2% | 90% | 77.9% | 48.6% | 6.5% | 6.03%
Cc1ccc(/C=N/NC(=O)c2ccccc2Oc2ccccc2)o1 | 102% | 100% | 104% | 97.7% | 101% | 102% | 104% | 91.3% | 98% | 81.5% | 69.6% | 102% | 96.4% | 97.2% | 88.7% | 86.7% | 91.2% | 88% | 80.4% | 83.5% | 83.3% | 80.9% | 98.9% | 96.3% | 95.1% | 89.4% | 113% | 101% | 95.6% | 96.3% | 85.9% | 96.9% | 86.3%
CCCCc1nc2cc(/C=C/C(=O)NO)ccc2n1CCN(CC)CC | 109% | 112% | 94.2% | 106% | 86.9% | 99.7% | 85.1% | 84.8% | 39.3% | 4.23% | 6.15% | 80.5% | 83.2% | 83.2% | 87.1% | 94.2% | 89.3% | 86.8% | 85.9% | 28.6% | 4.31% | 4.51% | 74.9% | 98.4% | 86.4% | 91.5% | 94.3% | 97.2% | 86.2% | 79.3% | 57.9% | 5.08% | 4.97%
CC(C)CC(N(C)C)C1(c2ccc(Cl)cc2)CCC1 (stereo not given) | 118% | 136% | 120% | 119% | 116% | 117% | 116% | 113% | 107% | 94.5% | 87% | 110% | 113% | 113% | 118% | 117% | 123% | 119% | 116% | 98.2% | 94.1% | 99% | 109% | 110% | 124% | 115% | 122% | 119% | 120% | 112% | 111% | 103% | 95.1%
Nc1ccn([C@H]2CS[C@@H](CO)O2)c(=O)n1 |  |  |  |  |  |  |  |  |  |  |  | 112% | 122% | 144% | 133% | 135% | 138% | 139% | 148% | 133% | 140% | 145% |  |  |  |  |  |  |  |  |  |  | 
CCCCCCCCCCCC/1=C(O)/C(=O)/C=C(O)\C1=O | 112% | 116% | 142% | 127% | 154% | 151% | 51.1% | 39.4% | 40.9% | 35.5% | 28.6% |  |  |  |  |  |  |  |  |  |  |  |  |  |  |  |  |  |  |  |  |  | 
COc1ccc2[nH]cc(CCNC(C)=O)c2c1 | 115% | 115% | 125% | 131% | 114% | 129% | 118% | 119% | 131% | 112% | 114% |  |  |  |  |  |  |  |  |  |  |  |  |  |  |  |  |  |  |  |  |  | 
COC(=O)Nc1nc2ccc([S+]([O-])c3ccccc3)cc2[nH]1 (stereo not given) | 96.8% | 106% | 119% | 110% | 101% | 119% | 121% | 113% | 101% | 97.9% | 66.7% |  |  |  |  |  |  |  |  |  |  |  | 113% | 123% | 120% | 131% | 136% | 137% | 123% | 134% | 130% | 116% | 94.8%
N#CC[C@H](C1CCCC1)n1cc(-c2ncnc3[nH]ccc23)cn1 | 117% | 106% | 103% | 91.3% | 105% | 107% | 85.1% | 85.8% | 61.4% | 21.2% | 15.7% | 94.3% | 84.2% | 101% | 78.9% | 82.7% | 79.1% | 87.1% | 78.1% | 91.3% | 43% | 14.8% | 97.1% | 102% | 93.2% | 66% | 108% | 93.8% | 88.7% | 89.9% | 79.9% | 61.2% | 41.2%

— the supplement of paper PMC11451515
